Experimental data taken from US9616129B2, “Compositions and methods for potentiating immune response, enhancing immunotherapy, and increasing vaccine potency” (Nitor Therapeutics, priority 2013, dated 2017).

What was measured:
Format in all cases: cell-based
[1] = molecular target: T1, human TLR3 (Homo sapiens, UniProt O15455); assay: TLR ligand screening, NF-κB SEAP reporter in HEK293 cells expressing TLR3; details: one concentration: NTR001 10 uM, Inosine 100 uM; FIG. 2
T1 construct: expressed in transfected cells; host or cells: HEK293
T1 sequence (O15455 24-904): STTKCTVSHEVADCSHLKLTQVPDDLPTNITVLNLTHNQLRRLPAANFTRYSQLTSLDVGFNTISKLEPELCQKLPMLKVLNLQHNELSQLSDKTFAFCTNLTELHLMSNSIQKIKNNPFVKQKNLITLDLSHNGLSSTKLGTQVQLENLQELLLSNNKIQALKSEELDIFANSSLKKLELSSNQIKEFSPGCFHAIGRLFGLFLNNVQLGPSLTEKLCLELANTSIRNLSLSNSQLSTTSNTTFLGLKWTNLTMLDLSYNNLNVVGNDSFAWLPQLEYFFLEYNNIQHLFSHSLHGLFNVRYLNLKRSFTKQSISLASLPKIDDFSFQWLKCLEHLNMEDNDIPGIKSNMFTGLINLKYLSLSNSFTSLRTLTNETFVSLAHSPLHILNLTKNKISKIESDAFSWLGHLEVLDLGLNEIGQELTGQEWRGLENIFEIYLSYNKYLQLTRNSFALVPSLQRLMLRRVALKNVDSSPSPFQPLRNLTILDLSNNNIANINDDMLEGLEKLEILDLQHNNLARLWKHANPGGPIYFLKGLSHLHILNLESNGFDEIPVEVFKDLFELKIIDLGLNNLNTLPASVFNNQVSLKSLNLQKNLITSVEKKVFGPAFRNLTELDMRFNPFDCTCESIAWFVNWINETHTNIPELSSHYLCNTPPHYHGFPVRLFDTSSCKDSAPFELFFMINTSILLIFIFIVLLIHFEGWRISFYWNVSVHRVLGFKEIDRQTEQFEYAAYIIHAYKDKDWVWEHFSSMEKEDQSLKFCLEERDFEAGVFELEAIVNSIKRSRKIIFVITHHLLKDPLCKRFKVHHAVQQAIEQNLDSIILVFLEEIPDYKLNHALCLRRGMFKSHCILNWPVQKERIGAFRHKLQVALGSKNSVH
Procedure: (§1) TLR stimulation is tested by assessing NF-κB activation in HEK293 cells expressing a given TLR. The Secreted Embryonic Alkaline Phosphatase (SEAP) reporter is under the control of a promoter inducible by the transcription factor NF-κB. This reporter gene allows the monitoring of signaling through the TLR, based on the activation of NF-κB. The compounds are evaluated at one concentration and compared to control ligands. This step is performed in triplicate.

[2] = molecular target: T2, human TLR4 (Homo sapiens, UniProt O00206); assay: TLR ligand screening, NF-κB SEAP reporter in HEK293 cells expressing TLR4; details: one concentration: Guanosine 100 uM, NTR001 10 uM, Inosine 100 uM; FIG. 2
T2 construct: expressed in transfected cells; host or cells: HEK293
T2 sequence (O00206 24-839): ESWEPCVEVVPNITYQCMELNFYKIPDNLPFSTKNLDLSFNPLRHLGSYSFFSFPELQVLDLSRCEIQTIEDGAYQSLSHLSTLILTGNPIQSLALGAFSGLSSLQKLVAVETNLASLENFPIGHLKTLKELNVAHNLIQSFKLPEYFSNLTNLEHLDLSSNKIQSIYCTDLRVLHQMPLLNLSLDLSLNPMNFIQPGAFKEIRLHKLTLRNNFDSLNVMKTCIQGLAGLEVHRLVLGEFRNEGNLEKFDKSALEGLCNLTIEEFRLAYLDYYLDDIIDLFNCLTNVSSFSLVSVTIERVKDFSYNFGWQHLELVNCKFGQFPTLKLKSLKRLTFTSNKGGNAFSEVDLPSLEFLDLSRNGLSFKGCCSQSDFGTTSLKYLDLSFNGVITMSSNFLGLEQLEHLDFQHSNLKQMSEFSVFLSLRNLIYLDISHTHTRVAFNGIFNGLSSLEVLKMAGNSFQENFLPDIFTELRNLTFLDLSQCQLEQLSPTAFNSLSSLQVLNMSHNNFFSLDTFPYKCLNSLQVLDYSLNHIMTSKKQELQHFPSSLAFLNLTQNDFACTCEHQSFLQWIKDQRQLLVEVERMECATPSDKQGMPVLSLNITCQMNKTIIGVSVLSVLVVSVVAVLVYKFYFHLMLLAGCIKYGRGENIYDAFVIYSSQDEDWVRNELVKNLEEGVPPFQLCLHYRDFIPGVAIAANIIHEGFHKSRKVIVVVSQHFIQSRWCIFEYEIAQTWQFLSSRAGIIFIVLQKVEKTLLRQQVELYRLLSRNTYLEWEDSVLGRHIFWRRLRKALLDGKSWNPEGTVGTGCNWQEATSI
T2 sequence (Q9Y6Y9 17-160 partner limits assumed): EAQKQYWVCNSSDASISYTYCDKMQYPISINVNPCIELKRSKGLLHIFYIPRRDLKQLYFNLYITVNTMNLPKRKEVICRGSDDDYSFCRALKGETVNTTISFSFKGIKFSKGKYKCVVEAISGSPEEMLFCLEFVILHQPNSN
Procedure: as §1

[3] = molecular target: T3, human TLR7 (Homo sapiens, UniProt Q9NYK1); assay: TLR ligand screening, NF-κB SEAP reporter in HEK293 cells expressing TLR7; details: one concentration: NTR001 10 uM, Inosine 100 uM; FIG. 2
T3 construct: expressed in transfected cells; host or cells: HEK293
T3 sequence (Q9NYK1 27-1049): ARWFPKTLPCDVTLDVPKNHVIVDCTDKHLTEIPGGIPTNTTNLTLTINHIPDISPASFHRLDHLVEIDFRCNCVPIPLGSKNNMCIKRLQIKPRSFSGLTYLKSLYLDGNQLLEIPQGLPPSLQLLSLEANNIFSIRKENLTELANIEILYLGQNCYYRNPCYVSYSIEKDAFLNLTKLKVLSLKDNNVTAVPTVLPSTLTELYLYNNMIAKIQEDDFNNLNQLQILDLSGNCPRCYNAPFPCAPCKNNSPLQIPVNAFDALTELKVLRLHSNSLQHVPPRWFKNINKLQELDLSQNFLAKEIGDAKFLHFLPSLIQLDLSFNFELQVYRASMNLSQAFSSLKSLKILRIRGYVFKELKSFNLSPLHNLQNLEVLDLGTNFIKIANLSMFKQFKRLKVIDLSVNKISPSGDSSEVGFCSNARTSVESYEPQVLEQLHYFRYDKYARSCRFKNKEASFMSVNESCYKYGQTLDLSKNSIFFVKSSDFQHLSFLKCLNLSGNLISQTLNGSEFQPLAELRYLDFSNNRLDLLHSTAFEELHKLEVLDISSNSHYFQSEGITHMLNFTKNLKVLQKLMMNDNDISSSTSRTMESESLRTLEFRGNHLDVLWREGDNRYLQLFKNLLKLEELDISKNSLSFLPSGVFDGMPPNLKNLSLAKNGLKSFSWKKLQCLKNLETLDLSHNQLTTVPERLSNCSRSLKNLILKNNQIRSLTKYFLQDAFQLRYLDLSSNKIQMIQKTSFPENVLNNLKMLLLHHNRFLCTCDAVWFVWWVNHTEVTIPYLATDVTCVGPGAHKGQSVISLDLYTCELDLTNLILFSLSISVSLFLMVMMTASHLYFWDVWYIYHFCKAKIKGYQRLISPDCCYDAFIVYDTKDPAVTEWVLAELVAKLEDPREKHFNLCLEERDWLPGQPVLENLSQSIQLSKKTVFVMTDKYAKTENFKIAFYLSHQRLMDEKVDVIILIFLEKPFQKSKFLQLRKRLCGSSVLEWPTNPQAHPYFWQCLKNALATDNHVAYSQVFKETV
Procedure: as §1

OC[C@H]1O[C@@H](n2cnc3c(O)ncnc32)[C@H](O)[C@@H]1O [Inosine]
do not exhibit a stimulatory effect: stimulatory effect on human TLR3 (NF-κB activation) [1] | stimulatory effect on human TLR4 (NF-κB activation) [2] | stimulatory effect on human TLR7 (NF-κB activation) [3]

O=c1[nH]cnc2c([C@@H]3N[C@H](CO)[C@@H](O)[C@H]3O)c[nH]c12 [NTR001, 7-[(2S,3S,4R,5R)-3,4-dihydroxy-5-(hydroxymethyl)-2-pyrrolidinyl]-1,5-dihydro-4H-pyrrolo[3,2-d]pyrimidin-4-one]
do not exhibit a stimulatory effect: stimulatory effect on human TLR3 (NF-κB activation) [1] | stimulatory effect on human TLR4 (NF-κB activation) [2] | stimulatory effect on human TLR7 (NF-κB activation) [3]
